Literature values, collected in patent publication US5965160A, “Self-emulsifiable formulation producing an oil-in-water emulsion” (priority 1998, dated 1999).

Settings: sealed entero-coated hard gelatine capsule; Barnwell et al, 1992

## CC(C)NCC(O)COc1cccc2ccccc12 (stereo not shown) [propranolol]
  oral bioavailability (in words): can be improved by dissolving the drug in a lipid formulation containing mainly oleic acid
